Source: patent US10208017B2, “Heterocycles capable of modulating T-cell responses, and methods of using same” (Nogra Pharma Limited, priority 2012, dated 2019)
Entries after “also recorded” stand apart in the source; their conditions may differ.

Experiments:
[1] = system: Human peripheral blood lymphocytes (PBLs) stimulated with PHA; experiment: Inhibition of T lymphocyte proliferation (tritiated thymidine); type: cell-based
[2] = system: phospho-Zap70; experiment: Western blot of TCR related signaling, phospho-Zap70; type: cell-based, Human; details: 10 min pretreatment, 10 min PHA; compared to a stimulated untreated control
Description: (§1) Lymphocytes were seeded in a 6 well plate (1.0·10^7/well), pretreated for 10 minutes with S3.1, S3.4 or dexamethasone and stimulated for 10 minutes with PHA. The experiment was stopped by adding a large volume of ice cold PBS to the cells. The suspension was transferred to a tube, briefly spinned down in a centrifuge and the supernatant removed. The pellet was lysed by adding cold lysis buffer (0.1% NP40, 50 mM TrisHCl, 1 mM EDTA, 1 mM EGTA, 150 mM NaCl, 200 μM Na3VO4, 10 mM NaF and protease inhibitors) and incubating 20 minutes on ice.
(§2) To investigate the cell signaling events that are affected by treatment with S3.1 and S3.4, lysates were supplemented with sample buffer (188 mM Tris-Cl (pH 6.8), 3% SDS, 30% glycerol, 0.01% bromophenol blue, 15% β-mercaptoethanol), heated to 95° C. for 5 minutes, cooled on ice and sonicated. Samples were then run on 10% SDS-PAGE gel, blotted to PVDF membrane and incubated with antibodies for phospho-Zap70 (Cell Signaling Technology (Beverly, Mass.)) and phospho-LAT (Cell Signaling Technology (Beverly, Mass.)). To show equal loading of the samples the blot was incubated with an antibody directed against beta-actin (Santa Cruz Biotechnology (Heidelberg, Germany)).

[3] = system: phospho-LAT; experiment: Western blot of TCR related signaling, phospho-LAT; type: cell-based, Human; details: 10 min pretreatment, 10 min PHA; compared to a stimulated untreated control
Description: as §1, §2

[4] = system: interaction between lymphocyte-specific protein tyrosine kinase (LCK) and its chaperone Hsp90; experiment: Immunoprecipitation of Lck and blotting for Hsp90; type: cell-based, Human; details: Lck immunoprecipitation, PHA stimulated lymphocytes
Description: as §1
The kinase Lck acts as a gate keeper to T cell receptor (TCR) related signaling as it is one of the first and most up stream kinases to be activated upon stimulation of the TCR. As downstream signaling of the TCR is inhibited by S3.1 and S3.4 treatment interactions with Lck were investigated by immunoprecipitating Lck and blotting for Hsp90. For immunprecipitation experiments 1.0·10^7 cells were used per condition. Cells were pelleted and lysed as described previously. The supernatant was precleared by adding 10 μl Protein A/G UltraLink resin (Pierce Biotechnology, Rockford, USA) for 30 minutes at 4° C. Beads were spinned down and discarded. Samples were incubated with 2 μg primary antibody and 25 μl beads for 2 hours at 4° C. Beads were washed with PBS, sample buffer was added and heated to 95° C. for 5 minutes.

SMILES: c1ccc(CN2CCCC(c3ccnc(SCCN4CCCC4)n3)C2)cc1 (stereo not shown) [S3.4, 4-(1-benzylpiperidin-3-yl)-2-(2-(pyrrolidin-1-yl)ethylthio)-pyrimidine]
- effect on lymphocyte proliferation [1]: antiproliferative effect; also recorded: shows effect on lymphocyte proliferation
- phosphorylation level of kinase Zap70 [2]: lower phosphorylation levels
- phosphorylation level of scaffolding protein LAT [3]: lower phosphorylation levels
- interaction between LCK and its chaperone Hsp90 [4]: lost
